13 molecules from patent publication US20260022142A1, “MACROCYCLIC IMMUNOMODULATORS” (Bristol-Myers Squibb Company, priority 2022, published 2026) can be followed below.

Bridge positions count the residues as written; N and C are the ends. Square brackets hold non-standard residues; d marks the D form. Peptide text beside a SMILES is read from it. * marks the point of attachment. Phe(4-CONH2) = NC(=O)c1ccc(C[C@H](N)C(=O)O)cc1; Phe(4-COOH) = N[C@@H](Cc1ccc(C(=O)O)cc1)C(=O)O; Bip = N[C@@H](Cc1ccc(-c2ccccc2)cc1)C(=O)O; Phe(3-Me) = Cc1cccc(C[C@H](N)C(=O)O)c1; 3Pal = N[C@@H](Cc1cccnc1)C(=O)O; 4Pal = N[C@@H](Cc1ccncc1)C(=O)O; Cha = N[C@@H](CC1CCCCC1)C(=O)O; Cit = NC(=O)NCCC[C@H](N)C(=O)O; Carboxymethyl = O=C(O)C*; Orn = NCCC[C@H](N)C(=O)O; Aun = NCCCCCCCCCCC(=O)O; Dab = NCC[C@H](N)C(=O)O

As a reminder, the IC50 is the point on the concentration scale where inhibition reaches its midpoint.

In this assay the target is T1, PD-1/PD-L1 interaction (PE-labeled human PD-L1-Ig binding to Jurkat cell line over-expressing human PD-1) (Homo sapiens, UniProt Q15116).
T1 construct: expressed in transfected cells; host or cells: Jurkat
T1 sequence (Q15116 25-288): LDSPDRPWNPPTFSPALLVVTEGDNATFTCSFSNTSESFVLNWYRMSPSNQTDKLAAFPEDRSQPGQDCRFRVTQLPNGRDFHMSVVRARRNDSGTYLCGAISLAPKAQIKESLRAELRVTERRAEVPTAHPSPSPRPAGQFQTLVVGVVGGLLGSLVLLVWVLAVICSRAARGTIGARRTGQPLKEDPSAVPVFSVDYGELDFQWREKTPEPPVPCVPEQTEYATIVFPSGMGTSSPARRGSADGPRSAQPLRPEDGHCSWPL
The assay is described as follows: Jurkat-PD-1 Cell Binding High-Content Screening Assay (CBA). It counts as cell-based. The following applies: Jurkat cell line over-expressing human PD-1; PE-labeled PD-L1-Ig 20 nM final; read-out: Jurkat hPD1-PDL1 IC50. A digest of the protocol: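 Read-out is high-content imaging of cell-bound phycoerythrin-tagged PD-L1-Ig on fixed, Hoechst-counterstained Jurkat cells that over-express human PD-1. Compound exposure lasts 2 h at 37° C before the labeled ligand (20 nM final) is added for a further hour.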
Consider `Cc1cccc(C[C@@H]2NC(=O)[C@H](CC(=O)O)NC(=O)[C@H](Cc3ccc(OCC(=O)O)cc3)NC(=O)[C@H](CCCNC(N)=O)NC(=O)CSC[C@@H](C(=O)N[C@@H](CCN)C(=O)NCCCCCCCCCCC(=O)O)NC(=O)[C@H]([C@@H](C)O)NC(=O)[C@H](C(C)C)NC(=O)[C@H](CC3CCCCC3)NC(=O)[C@H](CCN)NC(=O)[C@@H](CC(C)C)NC(=O)[C@H](CCCN)NC(=O)[C@H](CCCNC(N)=O)NC(=O)[C@H](Cc3ccc(-c4ccccc4)cc3)NC(=O)[C@H](C(C)C)NC2=O)c1` [Compound 2824] ({CH2CO}-[Cit]Y(Carboxymethyl)D[Phe(3-Me)]V[Bip][Cit][Orn][dL][Dab][Cha]VTC[Dab][Aun]-OH; thioether N-14), for which the IC50 worked out at 25.5 nM. As for `Cc1cccc(C[C@@H]2NC(=O)[C@H](CC(=O)O)NC(=O)[C@H](Cc3ccc(OCC(=O)O)cc3)NC(=O)[C@H](Cc3ccccc3)NC(=O)CSC[C@@H](C(=O)N[C@@H](CCN)C(=O)NCCCCCCCCCCC(=O)O)NC(=O)[C@H]([C@@H](C)O)NC(=O)[C@H](C(C)C)NC(=O)[C@H](CC3CCCCC3)NC(=O)[C@H](CCN)NC(=O)[C@@H](CC(C)C)NC(=O)[C@H](CCCN)NC(=O)[C@H](CCCNC(N)=O)NC(=O)[C@H](Cc3ccc(-c4ccccc4)cc3)NC(=O)[C@H](C(C)C)NC2=O)c1` [Compound 2825] ({CH2CO}-FY(Carboxymethyl)D[Phe(3-Me)]V[Bip][Cit][Orn][dL][Dab][Cha]VTC[Dab][Aun]-OH; thioether N-14), the IC50 was found to be 201 nM. As for `Cc1cccc(C[C@@H]2NC(=O)[C@H](CC(=O)O)NC(=O)[C@H](Cc3ccc(OCC(=O)O)cc3)NC(=O)[C@H](Cc3ccc(O)cc3)NC(=O)CSC[C@@H](C(=O)N[C@@H](CCN)C(=O)NCCCCCCCCCCC(=O)O)NC(=O)[C@H]([C@@H](C)O)NC(=O)[C@H](C(C)C)NC(=O)[C@H](CC3CCCCC3)NC(=O)[C@H](CCN)NC(=O)[C@@H](CC(C)C)NC(=O)[C@H](CCCN)NC(=O)[C@H](CCCNC(N)=O)NC(=O)[C@H](Cc3ccc(-c4ccccc4)cc3)NC(=O)[C@H](C(C)C)NC2=O)c1` [Compound 2826] ({CH2CO}-YY(Carboxymethyl)D[Phe(3-Me)]V[Bip][Cit][Orn][dL][Dab][Cha]VTC[Dab][Aun]-OH; thioether N-14), the IC50 was 62.2 nM. On to `Cc1cccc(C[C@@H]2NC(=O)[C@H](CC(=O)O)NC(=O)[C@H](Cc3ccc(OCC(=O)O)cc3)NC(=O)[C@H](Cc3ccc(C(N)=O)cc3)NC(=O)CSC[C@@H](C(=O)N[C@@H](CCN)C(=O)NCCCCCCCCCCC(=O)O)NC(=O)[C@H]([C@@H](C)O)NC(=O)[C@H](C(C)C)NC(=O)[C@H](CC3CCCCC3)NC(=O)[C@H](CCN)NC(=O)[C@@H](CC(C)C)NC(=O)[C@H](CCCN)NC(=O)[C@H](CCCNC(N)=O)NC(=O)[C@H](Cc3ccc(-c4ccccc4)cc3)NC(=O)[C@H](C(C)C)NC2=O)c1` [Compound 2827] ({CH2CO}-[Phe(4-CONH2)]Y(Carboxymethyl)D[Phe(3-Me)]V[Bip][Cit][Orn][dL][Dab][Cha]VTC[Dab][Aun]-OH; thioether N-14), for which the IC50 worked out at 13.1 nM.

On to `Cc1cccc(C[C@@H]2NC(=O)[C@H](CC(=O)O)NC(=O)[C@H](Cc3ccc(OCC(=O)O)cc3)NC(=O)[C@H](Cc3ccc(OCC(=O)O)cc3)NC(=O)CSC[C@@H](C(=O)N[C@@H](CCN)C(=O)NCCCCCCCCCCC(=O)O)NC(=O)[C@H]([C@@H](C)O)NC(=O)[C@H](C(C)C)NC(=O)[C@H](CC3CCCCC3)NC(=O)[C@H](CCN)NC(=O)[C@@H](CC(C)C)NC(=O)[C@H](CCCN)NC(=O)[C@H](CCCNC(N)=O)NC(=O)[C@H](Cc3ccc(-c4ccccc4)cc3)NC(=O)[C@H](C(C)C)NC2=O)c1` [Compound 2828] ({CH2CO}-Y(Carboxymethyl)Y(Carboxymethyl)D[Phe(3-Me)]V[Bip][Cit][Orn][dL][Dab][Cha]VTC[Dab][Aun]-OH; thioether N-14), for which the IC50 came to 77.4 nM. Turning to `Cc1cccc(C[C@@H]2NC(=O)[C@H](CC(=O)O)NC(=O)[C@H](Cc3ccc(OCC(=O)O)cc3)NC(=O)[C@H](Cc3ccc(C(=O)O)cc3)NC(=O)CSC[C@@H](C(=O)N[C@@H](CCN)C(=O)NCCCCCCCCCCC(=O)O)NC(=O)[C@H]([C@@H](C)O)NC(=O)[C@H](C(C)C)NC(=O)[C@H](CC3CCCCC3)NC(=O)[C@H](CCN)NC(=O)[C@@H](CC(C)C)NC(=O)[C@H](CCCN)NC(=O)[C@H](CCCNC(N)=O)NC(=O)[C@H](Cc3ccc(-c4ccccc4)cc3)NC(=O)[C@H](C(C)C)NC2=O)c1` [Compound 2829] ({CH2CO}-[Phe(4-COOH)]Y(Carboxymethyl)D[Phe(3-Me)]V[Bip][Cit][Orn][dL][Dab][Cha]VTC[Dab][Aun]-OH; thioether N-14), the IC50 turned out to be 162 nM. Regarding `Cc1cccc(C[C@@H]2NC(=O)[C@H](CC(=O)O)NC(=O)[C@H](Cc3ccc(OCC(=O)O)cc3)NC(=O)[C@H](CCC(N)=O)NC(=O)CSC[C@@H](C(=O)N[C@@H](CCN)C(=O)NCCCCCCCCCCC(=O)O)NC(=O)[C@H]([C@@H](C)O)NC(=O)[C@H](C(C)C)NC(=O)[C@H](CC3CCCCC3)NC(=O)[C@H](CCN)NC(=O)[C@@H](CC(C)C)NC(=O)[C@H](CCCN)NC(=O)[C@H](CCCNC(N)=O)NC(=O)[C@H](Cc3ccc(-c4ccccc4)cc3)NC(=O)[C@H](C(C)C)NC2=O)c1` [Compound 2830] ({CH2CO}-QY(Carboxymethyl)D[Phe(3-Me)]V[Bip][Cit][Orn][dL][Dab][Cha]VTC[Dab][Aun]-OH; thioether N-14), the IC50 amounted to 26 nM. For `Cc1cccc(C[C@@H]2NC(=O)[C@H](CC(=O)O)NC(=O)[C@H](Cc3ccc(OCC(=O)O)cc3)NC(=O)[C@H](Cc3ccncc3)NC(=O)CSC[C@@H](C(=O)N[C@@H](CCN)C(=O)NCCCCCCCCCCC(=O)O)NC(=O)[C@H]([C@@H](C)O)NC(=O)[C@H](C(C)C)NC(=O)[C@H](CC3CCCCC3)NC(=O)[C@H](CCN)NC(=O)[C@@H](CC(C)C)NC(=O)[C@H](CCCN)NC(=O)[C@H](CCCNC(N)=O)NC(=O)[C@H](Cc3ccc(-c4ccccc4)cc3)NC(=O)[C@H](C(C)C)NC2=O)c1` [Compound 2831] ({CH2CO}-[4Pal]Y(Carboxymethyl)D[Phe(3-Me)]V[Bip][Cit][Orn][dL][Dab][Cha]VTC[Dab][Aun]-OH; thioether N-14), the IC50 stood at 43.2 nM.

Consider `Cc1cccc(C[C@@H]2NC(=O)[C@H](CC(=O)O)NC(=O)[C@H](Cc3ccc(OCC(=O)O)cc3)NC(=O)[C@H](Cc3cccnc3)NC(=O)CSC[C@@H](C(=O)N[C@@H](CCN)C(=O)NCCCCCCCCCCC(=O)O)NC(=O)[C@H]([C@@H](C)O)NC(=O)[C@H](C(C)C)NC(=O)[C@H](CC3CCCCC3)NC(=O)[C@H](CCN)NC(=O)[C@@H](CC(C)C)NC(=O)[C@H](CCCN)NC(=O)[C@H](CCCNC(N)=O)NC(=O)[C@H](Cc3ccc(-c4ccccc4)cc3)NC(=O)[C@H](C(C)C)NC2=O)c1` [Compound 2832] ({CH2CO}-[3Pal]Y(Carboxymethyl)D[Phe(3-Me)]V[Bip][Cit][Orn][dL][Dab][Cha]VTC[Dab][Aun]-OH; thioether N-14), for which the IC50 amounted to 48 nM. On to `Cc1cccc(C[C@@H]2NC(=O)[C@H](CC(=O)O)NC(=O)[C@H](Cc3ccc(OCC(=O)O)cc3)NC(=O)[C@H](CCCNC(=N)N)NC(=O)CSC[C@@H](C(=O)N[C@@H](CCN)C(=O)NCCCCCCCCCCC(=O)O)NC(=O)[C@H]([C@@H](C)O)NC(=O)[C@H](C(C)C)NC(=O)[C@H](CC3CCCCC3)NC(=O)[C@H](CCN)NC(=O)[C@@H](CC(C)C)NC(=O)[C@H](CCCN)NC(=O)[C@H](CCCNC(N)=O)NC(=O)[C@H](Cc3ccc(-c4ccccc4)cc3)NC(=O)[C@H](Cc3ccc(O)cc3)NC2=O)c1` [Compound 2833] ({CH2CO}-RY(Carboxymethyl)D[Phe(3-Me)]Y[Bip][Cit][Orn][dL][Dab][Cha]VTC[Dab][Aun]-OH; thioether N-14), for which the IC50 was 5.2 nM. As to `CC(C)C[C@H]1NC(=O)[C@H](CCCN)NC(=O)[C@H](CCCNC(N)=O)NC(=O)[C@H](Cc2ccc(-c3ccccc3)cc2)NC(=O)[C@H](Cc2ccc(O)cc2)NC(=O)[C@H](Cc2c[nH]c3ccccc23)NC(=O)[C@H](CC(=O)O)NC(=O)[C@H](Cc2ccc(OCC(=O)O)cc2)NC(=O)[C@H](CCCNC(=N)N)NC(=O)CSC[C@@H](C(=O)N[C@@H](CCN)C(=O)NCCCCCCCCCCC(=O)O)NC(=O)[C@H]([C@@H](C)O)NC(=O)[C@H](C(C)C)NC(=O)[C@H](CC2CCCCC2)NC(=O)[C@H](CCN)NC1=O` [Compound 2834] ({CH2CO}-RY(Carboxymethyl)DWY[Bip][Cit][Orn][dL][Dab][Cha]VTC[Dab][Aun]-OH; thioether N-14), the IC50 is 20.2 nM. Regarding `Cc1cccc(C[C@@H]2NC(=O)[C@H](CC(=O)O)NC(=O)[C@H](Cc3ccc(OCC(=O)O)cc3)NC(=O)[C@H](CCCNC(=N)N)NC(=O)CSC[C@@H](C(=O)N[C@@H](CCCN)C(=O)NCCCCCCCCCCC(=O)O)NC(=O)[C@H]([C@@H](C)O)NC(=O)[C@H](C(C)C)NC(=O)[C@H](CC3CCCCC3)NC(=O)[C@H](CCN)NC(=O)[C@@H](CC(C)C)NC(=O)[C@H](CCCN)NC(=O)[C@H](CCCNC(N)=O)NC(=O)[C@H](Cc3ccc(-c4ccccc4)cc3)NC(=O)[C@H](Cc3ccc(O)cc3)NC2=O)c1` [Compound 2835] ({CH2CO}-RY(Carboxymethyl)D[Phe(3-Me)]Y[Bip][Cit][Orn][dL][Dab][Cha]VTC[Orn][Aun]-OH; thioether N-14), the half-inhibitory concentration (IC50) stood at 18.9 nM.

Regarding `Cc1cccc(C[C@@H]2NC(=O)[C@H](CC(=O)O)NC(=O)[C@H](Cc3ccc(OCC(=O)O)cc3)NC(=O)[C@H](CCCNC(=N)N)NC(=O)CSC[C@@H](C(=O)N[C@@H](CCN)C(=O)NCCCCCCCCCCC(=O)O)NC(=O)[C@H]([C@@H](C)O)NC(=O)[C@H](C(C)C)NC(=O)[C@H](CC3CCCCC3)NC(=O)[C@H](CCN)NC(=O)[C@@H](CC(C)C)NC(=O)[C@H](CCCN)NC(=O)[C@H](CCCNC(N)=O)NC(=O)[C@H](Cc3ccc(-c4ccccc4)cc3)NC(=O)[C@H](Cc3ccc(OCC(=O)O)cc3)NC2=O)c1` [Compound 2836] ({CH2CO}-RY(Carboxymethyl)D[Phe(3-Me)]Y(Carboxymethyl)[Bip][Cit][Orn][dL][Dab][Cha]VTC[Dab][Aun]-OH; thioether N-14), the IC50 is 16.4 nM.
